According to patent US7659293B2, “α-Amino-N-hydroxy-acetamide derivatives” (Novartis AG, priority 2001, dated 2010):
Counter-ions that a name gives are not always drawn.

Biological target: T1, MMP9 (Gelatinase-B) (Homo sapiens, UniProt P14780)
T1 construct: endogenous in cells; host or cells: THP1 human monocytic leukemia cells, TPA-stimulated; purified from culture medium
Test: Assay of MMP9 (fluorogenic peptide)
Assay type: biochemical
Details: mean ± SEM of three independent experiments
Procedure: MMP9 is prepared form the culture medium of THP1 human monocytic leukemia cells treated with TPA. THP1 cells are maintained in a culture of DMEM/F-12 with 10% FCS and stimulated to produce pro-MMP9 with TPA (1 nM) in serum-free medium for 48 h. All purification procedures are carried out at 4° C. The 1 liters of culture medium is concentrated to 100 ml by Centricon (Amicon) and applied to a column (1×8 cm) of gelatin-sepharose (Pharmacia) equilibrated with 50 mM Tris-Cl (pH=8.0), 300 mM NaCl. The fraction containing pro-MMP-9 is eluted with 10% DMSO in 50 mM Tris-Cl (pH=8.0), 300 mM NaCl, then dialyzed against 50 mM Tris-Cl (pH 7.5), 150 mM NaCl. The fraction is concentrated by Centricon and subjected to column chromatography of Sephadex G200 (2×20 cm) equilibrated with 50 mM Tris-Cl (pH=7.5) containing 150 mM NaCl. The purified Pro-MMP9 is stored at −80° C. as a stock and the necessary amount of pro-form is used for activation. Pro-MMP9 is activated with 1 mM aminophenyl mercury acetate (APMA, ICN Pharmaceuticals) in 50 mM Tris-Cl (pH=7.5) containing 150 mM NaCl, 10 mM CaCl2 and 0.05% Brij-35 (MMP Assay Buffer) for 18 h at 37° C., and the APMA is removed by extensive dialysis against MMP Assay Buffer. […]
The activated MMP-9 (82 kDa) is then used to screen compounds. […] The increase of fluorescence is monitored at 460 nm with excitation at 355 nm. […]

T1 sequence (P14780 107-707 limits assumed): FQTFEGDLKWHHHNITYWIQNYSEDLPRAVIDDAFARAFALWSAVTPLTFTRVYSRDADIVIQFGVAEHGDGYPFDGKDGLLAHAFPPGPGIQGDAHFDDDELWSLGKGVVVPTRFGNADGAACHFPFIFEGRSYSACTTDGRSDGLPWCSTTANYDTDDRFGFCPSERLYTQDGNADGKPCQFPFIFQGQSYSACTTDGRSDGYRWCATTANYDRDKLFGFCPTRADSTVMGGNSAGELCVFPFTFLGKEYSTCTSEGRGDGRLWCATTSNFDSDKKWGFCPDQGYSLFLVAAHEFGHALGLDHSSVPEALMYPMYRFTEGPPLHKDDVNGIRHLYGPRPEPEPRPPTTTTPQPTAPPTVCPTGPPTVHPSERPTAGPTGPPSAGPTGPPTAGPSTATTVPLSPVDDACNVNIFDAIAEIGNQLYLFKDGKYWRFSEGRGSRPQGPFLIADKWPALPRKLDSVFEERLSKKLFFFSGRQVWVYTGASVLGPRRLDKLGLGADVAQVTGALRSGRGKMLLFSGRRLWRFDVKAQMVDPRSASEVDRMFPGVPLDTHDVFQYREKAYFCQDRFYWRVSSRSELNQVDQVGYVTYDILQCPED

CN(C)c1ccc(CN(CC(=O)NO)S(=O)(=O)c2ccc(OCC3CC3)cc2)cc1 [Example 2, 2-[(4-Cyclopropylmethoxy-benzenesulfonyl)-(4-dimethylamino-benzyl-amino]-N-hydroxy-acetamide HCl salt]
IC50: 2.57 ± 0.27 nM
